We go through eight compounds from patent US20110033397A1, “Anti-Aging Compositions Comprising Menyanthes Trifoliata Leaf Extracts And Methods Of Use Thereof” (priority 2006, published 2011).

Where two headings read alike, the source gives them in different places.

Type in all cases: biochemical
Experiment [1] is described as follows: Peroxynitrite scavenging (ABEL peroxynitrite antioxidant test kit with Pholasin). Particulars: summary of Table 6. On the procedure:
Assay was performed with the ABEL® peroxynitrite antioxidant test kit with Pholasin®. Standards of different phenolic acids and flavonoids, identified in […] trifoliata extracts, were tested for their in vitro peroxynitrite scavenging activity. Assay was performed with the ABEL® peroxynitrite antioxidant test kit with Pholasin®.

Experiment [2] has as its target T1, Recombinant human MMP-1 enzyme (Homo sapiens, UniProt P03956).
T1 construct: purchased
T1 sequence (P03956 100-469): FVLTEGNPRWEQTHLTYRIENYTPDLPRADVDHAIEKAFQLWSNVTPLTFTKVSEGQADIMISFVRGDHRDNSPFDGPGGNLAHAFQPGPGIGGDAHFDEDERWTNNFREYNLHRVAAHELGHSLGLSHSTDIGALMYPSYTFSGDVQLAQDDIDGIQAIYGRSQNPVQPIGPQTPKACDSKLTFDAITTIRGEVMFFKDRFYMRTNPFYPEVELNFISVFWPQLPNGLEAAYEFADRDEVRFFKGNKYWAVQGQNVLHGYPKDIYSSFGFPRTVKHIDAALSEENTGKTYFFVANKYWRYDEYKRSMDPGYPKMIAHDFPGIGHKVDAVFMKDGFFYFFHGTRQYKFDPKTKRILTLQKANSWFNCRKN
Nature of the experiment: In vitro inhibition of MMP-1 activity. Particulars: for in vitro MMP-1 inhibition activity, in words: summary of Tables 2 and 4. The source says: In vitro specific inhibition of MMP-2 and MMP-9 activity was estimated with assay kits from Biomol®. Recombinant human MMP-1 enzyme may be obtained from any commercially available source. […] Therefore, a lower value indicates a stronger MMP inhibition.
In vitro specific inhibition of MMP-2 and MMP-9 activity is estimated with assay kits from Biomol®. Recombinant human MMP-1 enzyme is obtained from any commercially available source.

A further experiment addresses T2, MMP-2 (Homo sapiens, UniProt P08253).
T2 construct: purchased Biomol
As to the kind of experiment: In vitro specific inhibition of MMP-2 activity (Biomol assay kit). The settings on record: for IC50: selected standards, Table 4, read-out: inhibition expressed as IC50 against MMP-2 (converted); for in vitro MMP-2 inhibition activity, in words: summary of Tables 2 and 4. On the procedure: (§1) Several extracts and sub-fractions from the leaves of Menyanthes trifoliata were prepared by liquid-liquid partitioning and fractionation on a Sephadex LH20 gel filtration column (see example 1) and evaluated for specific anti-MMP activity. In vitro specific inhibition of MMP-2 and MMP-9 activity was estimated with assay kits from Biomol®. Recombinant human MMP-1 enzyme may be obtained from any commercially available source. […] Therefore, a lower value indicates a stronger MMP inhibition.
(§2) To further understand which agents may be contributing to the MMP-1, 2, 9 inhibition activity, standards of the different phenol acids, flavonoids and coumarins, identified in Menyanthes trifoliata extracts, were tested for their in vitro inhibition of MMPs-1, 2 and 9. In vitro specific inhibition of MMP-2 and MMP-9 activity is estimated with assay kits from Biomol®. Recombinant human MMP-1 enzyme is obtained from any commercially available source.

For a further experiment, the target named is T3, MMP-9 (Homo sapiens, UniProt P14780).
T3 construct: purchased Biomol
Nature of the experiment: In vitro specific inhibition of MMP-9 activity (Biomol assay kit). Particulars: for IC50: selected standards, Table 4, read-out: inhibition expressed as IC50 against MMP-9 (converted); for in vitro MMP-9 inhibition activity, in words: summary of Tables 2 and 4. How it is done:
as §1, §2

Where [3] appears, read: selected standards, Table 4, read-out: inhibition expressed as IC50 against MMP-1 (converted).

T2 sequence (P08253 110-446 limits assumed): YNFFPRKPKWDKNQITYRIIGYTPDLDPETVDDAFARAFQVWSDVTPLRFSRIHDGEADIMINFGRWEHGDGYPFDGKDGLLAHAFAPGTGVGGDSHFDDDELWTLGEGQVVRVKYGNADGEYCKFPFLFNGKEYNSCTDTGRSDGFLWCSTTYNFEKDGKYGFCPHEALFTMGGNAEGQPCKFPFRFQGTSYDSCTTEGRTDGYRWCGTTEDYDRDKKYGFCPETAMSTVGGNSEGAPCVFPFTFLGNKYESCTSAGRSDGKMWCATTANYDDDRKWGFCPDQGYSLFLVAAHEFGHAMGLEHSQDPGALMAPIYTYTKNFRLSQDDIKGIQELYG
T3 sequence (P14780 107-444 limits assumed): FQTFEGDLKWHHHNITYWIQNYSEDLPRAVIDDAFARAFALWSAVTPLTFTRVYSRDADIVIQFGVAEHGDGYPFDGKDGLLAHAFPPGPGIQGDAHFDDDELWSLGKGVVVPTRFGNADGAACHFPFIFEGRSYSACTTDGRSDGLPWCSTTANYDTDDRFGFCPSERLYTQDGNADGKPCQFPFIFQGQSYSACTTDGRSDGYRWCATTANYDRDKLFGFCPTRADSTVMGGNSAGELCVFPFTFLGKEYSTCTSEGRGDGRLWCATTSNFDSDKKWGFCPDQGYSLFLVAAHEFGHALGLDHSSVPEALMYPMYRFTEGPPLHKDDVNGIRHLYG

For `O=C(O)c1ccc(O)c(O)c1` [Protocatechuic acid], the “peroxynitrite scavenging activity, in words” value in experiment [1] is “strong”.

For orientation: IC50 means the concentration that inhibits the measured activity by half. With `COc1cc2ccc(=O)oc2cc1O` [Scopoletin], in experiment [2] (setting [3]), the IC50 is 78.1 µM. Further, the “in vitro MMP-1 inhibition activity, in words” value in experiment [2] is reported as “strong”. On MMP-2, the IC50 was 93.7 µM and the “in vitro MMP-2 inhibition activity, in words” value is given as “strong”. For the same compound, on MMP-9, the IC50 is 130 µM and the “in vitro MMP-9 inhibition activity, in words” value is given as “strong”.

For the compound `O=c1c(O)c(-c2ccc(O)c(O)c2)oc2cc(O)cc(O)c12` [Quercetin], the “in vitro MMP-1 inhibition activity, in words” value in experiment [2] was “strong”. Also, at MMP-2, the IC50 is 33.1 µM and the “in vitro MMP-2 inhibition activity, in words” value is “strong”. Besides, on MMP-9, the IC50 is 62.9 µM and the “in vitro MMP-9 inhibition activity, in words” value is “strong”. Further, the “peroxynitrite scavenging activity, in words” value in experiment [1] is “strong”.

Consider `O=c1c(O[C@@H]2O[C@H](CO)[C@@H](O)[C@H](O)[C@H]2O)c(-c2ccc(O)c(O)c2)oc2cc(O)cc(O)c12` [Iso-quercitrin], for which the half-maximal inhibitory concentration (IC50) was 49.5 µM in experiment [2], 21.5 µM at MMP-2 and 198 µM on MMP-9.

For the compound `O=C(O)c1ccc(O)cc1` [p-hydroxy-benzoic acid], the “in vitro MMP-1 inhibition activity, in words” value in experiment [2] is “not”. Moreover, the “in vitro MMP-9 inhibition activity, in words” value at MMP-9 is reported as “not”.

Regarding `COc1cc2ccc(=O)oc2cc1OC` [Scoparone], the half-inhibitory concentration (IC50) in experiment [2] (setting [3]) was 72.7 µM. The “in vitro MMP-1 inhibition activity, in words” value in experiment [2] is on record as “strong”. At MMP-2, the IC50 was 87.3 µM and the “in vitro MMP-2 inhibition activity, in words” value is “strong”. Also, at MMP-9, the IC50 is 48.5 µM and the “in vitro MMP-9 inhibition activity, in words” value was “strong”.

`C[C@@H]1O[C@@H](OC[C@H]2O[C@@H](Oc3c(-c4ccc(O)c(O)c4)oc4cc(O)cc(O)c4c3=O)[C@H](O)[C@@H](O)[C@@H]2O)[C@H](O)[C@H](O)[C@H]1O` [Rutin]: the half-inhibitory concentration (IC50) in experiment [2] (setting [3]) is 65.5 µM; on MMP-2 it was 45.9 µM; on MMP-9, 70.4 µM.

Regarding `COc1cc(/C=C/C(=O)O)ccc1O` [ferulic acid], the 50% inhibitory concentration (IC50) in experiment [2] (setting [3]) is 144 µM. Moreover, the “in vitro MMP-1 inhibition activity, in words” value in experiment [2] was “strong”. Further, at MMP-2, the IC50 was 113 µM and the “in vitro MMP-2 inhibition activity, in words” value is “strong”. Besides, on MMP-9, the IC50 is 103 µM and the “in vitro MMP-9 inhibition activity, in words” value was “strong”. For the same compound, in experiment [1], the “peroxynitrite scavenging activity, in words” value is “strong”.
